# Measurements as given in patent US20080200489A1, “Combination of Organic Compounds” (priority 2005, published 2008).
# Assays:
# [1] = test system: NBMCs; assay: Loss of survival of NBMCs; type: cell-based; conditions: for loss of survival of NBMCs: 48 hours, mean of 2 samples
# Description: Primary CML-BC cells and NBMCs: Leukemia cells from the peripheral blood and/or bone marrow of 10 patients who had met the clinical criteria of imatinib-resistant Ph chromosome-positive CML-BC (Imatinib-resistant Philadelphia chromosome-positive chromic myeloid leukaemia-blast crisis) are harvested and purified. Additionally, NBMCs are harvested and purified. Informed consents are signed by all patients to allow use of their cells for these experiments, as part of a clinical protocol approved by the University of South Florida Institutional Review Board (IRB).
# Assessment of percentage of non-viable cells: Cells are stained with trypan blue (Sigma, St Louis, Mo.).
# [2] = test system: Bcr-AblE255K; assay: Western analyses of Bcr-Abl levels, BaF3/Bcr-AblE255K cells; type: cell-based, mouse
# [3] = test system: K562 cells; assay: Apoptosis assessment by annexin V staining, K562 cells; type: cell-based, human; conditions: for apoptosis of K562 cells: agent alone
# Method: (§1) Cell lines and cell culture: Bcr-Abl-expressing, CML LAMA-84 and K562 cells are obtained from American Tissue Culture Collection (Manassas, Va.) and maintained in culture in RPMI medium containing 10% fetal bovine serum and passaged twice a week. Mouse pro-B BaF3 cells are cultured in complete RPMI-1640 media supplemented with 10% WEHI medium as the source of IL-3. For the studies described herein, logarithmically growing cells are exposed to the designated concentrations of Compound (II) and/or Compound (V). Following these treatments, cells or cell pellets are washed free of the drug(s) prior to the performance of the studies. Apoptosis assessment by annexin V staining: Untreated and drug-treated cells are stained with annexin V and PI, and the percentage of apoptotic cells is determined by flow cytometry. Analysis of synergism between Compound (II) and Compound (V) in inducing apoptosis of K562 and LAMA-84 cells is performed by Median Dose-Effect analysis of Chou and Talalay using the commercially-available software (Calcusyn; Biosoft, Ferguson, Mo.).
# [4] = test system: LAMA-84 cells; assay: Apoptosis assessment by annexin V staining, LAMA-84 cells; type: cell-based, human; conditions: for apoptosis of LAMA-84 cells: agent alone
# Method: as §1
# [5] = test system: BaF3/Bcr-AblT315I cells; assay: Apoptosis of BaF3 cells expressing Bcr-AblT315I; type: cell-based, mouse
# Method: Mouse pro-B BaF3 cells are cultured in complete RPMI-1640 media supplemented with 10% WEHI medium as the source of IL-3. […] Following these treatments, cells or cell pellets are washed free of the drug(s) prior to the performance of the studies.
# Site-directed mutagenesis and nucleofection: Three p210 Bcr-Abl constructs are used in the current studies. The p210 Bcr-Abl WT and p210 Bcr-Abl (T315I) constructs are generated. […] For nucleofection of the p210 Bcr-Abl constructs into BaF3 cells, 5 million BaF3 cells in 100 μL Nucleofector solution V (Amaxa, Gaithersburg, Md.) are mixed with 5 μg p210 Bcr-Abl WT, p210 Bcr-Abl (T315I), or p210 Bcr-Abl (E255K) in a cuvette and nucleofected using program G-16. Following nucleofection, the cells are incubated at a concentration of 1×10^6 cells/mL in complete RPMI-1640 media supplemented with 10% WEHI medium as the source of IL-3, overnight, to recover. Stable transfectants of BaF3 cells expressing the WT or mutant form of Bcr-Abl (i.e., T315I or E255K) are maintained in RPMI 1640 supplemented with 10% serum, 1.0 U/mL penicillin, 1 μg/mL streptomycin and 0.75 mg/mL G418. Stably expressing cells are then further selected by removal of IL-3. After confirmation of Bcr-Abl expression by immunoblot analysis, cells are used for the studies described herein.
# [6] = test system: primary, imatinib-resistant CML cells; assay: Loss of viability / apoptosis of primary imatinib-resistant CML-BC cells; type: cell-based, human; conditions: for sensitivity of sample 7: Compound (II) at lower concentrations; for apoptosis of cells: sample no. 9 (Bcr-AblT315I)
# Method: Primary CML-BC cells and NBMCs: […] Additionally, NBMCs are harvested and purified. Informed consents are signed by all patients to allow use of their cells for these experiments, as part of a clinical protocol approved by the University of South Florida Institutional Review Board (IRB). Sequencing of Bcr-Abl in CML-BC cells: […] Total RNA (5 μg) is reverse transcribed with a first-strand cDNA synthesis kit (Invitrogen). Reverse transcribed cDNAs are used in polymerase chain reaction (PCR) amplifications to amplify a fragment of Bcr-Abl that included the Bcr junction region and the c-Abl kinase region. The amplified sequences are agarose gel-purified and cloned into pCR4-TOPO plasmid. The resulting plasmids are transformed into Escherichia coli Mach1 cells (Invitrogen) overnight at 37° C. Ten colonies for each sample are checked by colony PCR and subcultured for plasmid isolation. Isolated plasmids are sequence verified with T3 and T7 primers for c-Abl kinase domain mutations. Assessment of percentage of non-viable cells: Cells are stained with trypan blue (Sigma, St Louis, Mo.). […] Apoptosis assessment by annexin V staining: Untreated and drug-treated cells are stained with annexin V and PI, and the percentage of apoptotic cells is determined by flow cytometry. Analysis of synergism between Compound (II) and Compound (V) in inducing apoptosis of K562 and LAMA-84 cells is performed by Median Dose-Effect analysis of Chou and Talalay using the commercially-available software (Calcusyn; Biosoft, Ferguson, Mo.).
# [7] = test system: Bcr-AblT315I; assay: Western analyses of Bcr-Abl levels, BaF3/Bcr-AblT315I cells; type: cell-based, mouse
# [8] = test system: Bcr-Abl; assay: Western analyses of Bcr-Abl levels, BaF3/Bcr-Abl cells; type: cell-based, mouse
# [9] = test system: BaF3/Bcr-AblE255K cells; assay: Apoptosis of BaF3 cells expressing Bcr-AblE255K; type: cell-based, mouse
# Description: (§2) Cell lines and cell culture: Bcr-Abl-expressing, CML LAMA-84 and K562 cells are obtained from American Tissue Culture Collection (Manassas, Va.) and maintained in culture in RPMI medium containing 10% fetal bovine serum and passaged twice a week. […] Following these treatments, cells or cell pellets are washed free of the drug(s) prior to the performance of the studies.
# (§3) Site-directed mutagenesis and nucleofection: Three p210 Bcr-Abl constructs are used in the current studies. The p210 Bcr-Abl WT and p210 Bcr-Abl (T315I) constructs are generated. […] For nucleofection of the p210 Bcr-Abl constructs into BaF3 cells, 5 million BaF3 cells in 100 μL Nucleofector solution V (Amaxa, Gaithersburg, Md.) are mixed with 5 μg p210 Bcr-Abl WT, p210 Bcr-Abl (T315I), or p210 Bcr-Abl (E255K) in a cuvette and nucleofected using program G-16. […] Stably expressing cells are then further selected by removal of IL-3. After confirmation of Bcr-Abl expression by immunoblot analysis, cells are used for the studies described herein.
# (§4) Apoptosis assessment by annexin V staining: Untreated and drug-treated cells are stained with annexin V and PI, and the percentage of apoptotic cells is determined by flow cytometry.
# [10] = test system: Bcr-Abl; assay: Western/immunoblot analyses of Bcr-Abl and downstream signaling proteins, LAMA-84 cells; type: cell-based, human; conditions: agent alone
# Method: as §2
# (§5) Western analyses of proteins: Western analyses are performed using specific antisera or monoclonal antibodies according to previously reported protocols, and the horizontal scanning densitometry is performed on Western blots.
# Immunoprecipitation of Bcr-Abl and immunoblot analyses: Following the designated drug treatments, cells are lysed in lysis buffer (20 mM Tris [pH 8], […] sodium chloride, 1% NP40, 0.1 M sodium fluoride, 1 mM PMSF, 1 mM sodium orthovanadate, 2.5 μg/mL leupeptin, 5 μg/mL aprotinin) for 30 minutes on ice, and the nuclear and cellular debris is cleared by centrifugation. Cell lysates (200 μg) are incubated with the Abl-specific monoclonal antibody for 1 hour at 4° C. To this, washed Protein G agarose beads are added and incubated overnight at 4° C. The immunoprecipitates are washed 3 times in the lysis buffer, and proteins are eluted with the SDS sample loading buffer prior to the immunoblot analyses with specific antibodies against anti-Abl or antiphosphotyrosine antibody.
# [11] = test system: Bcr-Abl; assay: Western blot analyses of total cell lysates of primary CML cells; type: cell-based, human; conditions: sample 9; 1000 nM alone
# Method: Additionally, NBMCs are harvested and purified. Informed consents are signed by all patients to allow use of their cells for these experiments, as part of a clinical protocol approved by the University of South Florida Institutional Review Board (IRB).
# as §5
# [12] = test system: BaF3/Bcr-Abl cells; assay: Apoptosis of BaF3 cells expressing unmutated Bcr-Abl; type: cell-based, mouse; conditions: agent alone
# Description: as §2, §3, §4
# [13] = any of the levels tested, alone
smiles,measurement,setting,value
"Cc1cn(-c2cc(NC(=O)c3ccc(C)c(Nc4nccc(-c5cccnc5)n4)c3)cc(C(F)(F)F)c2)cn1 [Compound (II), 4-methyl-3-[[4-(3-pyridinyl)-2-pyrimidinyl]amino]-N-[5-(4-methyl-1H-imidazol-1-yl)-3-(trifluoromethyl)phenyl]benzamide]",effect against NBMCs,[1]; up to 1.0 μM,no effect
same,levels of p-CrkL,[2]; agent alone,did not affect
same,levels of Bcr-Abl,[2]; [13],did not lower
same,potency in inducing apoptosis relative to imatinib,[3]; K562 cells,approximately 10 fold
same,apoptosis of K562 cells,[3],dose-dependent manner
same,potency in inducing apoptosis relative to imatinib,[4]; LAMA-84 cells,approximately 10 fold
same,apoptosis of LAMA-84 cells,[4],dose-dependent manner
same,apoptosis of BaF3/Bcr-AblT315I cells,"[5]; levels as high as 2,000 nM",resistant
same,sensitivity of sample 7,[6],relatively resistant
same,apoptosis of cells,[6]; 2.0 μM,ineffective
same,loss of cell viability,"[6]; samples 1 to 7, agent alone",dose dependent
same,loss of cell viability,"[6]; samples 8, 9, and 10 with Bcr-AblT315I mutation, Compound (II) alone",did not augment
same,levels of p-CrkL,[7]; agent alone,did not affect
same,levels of Bcr-Abl,[7]; [13],did not lower
same,levels of p-CrkL,[8]; agent alone,did not affect
same,levels of Bcr-Abl,[8]; [13],did not lower
same,apoptosis of BaF3/Bcr-AblE255K cells,[9]; 100 nM,ineffective
same,apoptosis of BaF3/Bcr-AblE255K cells,[9]; 200 nM,26.0%
same,apoptosis of BaF3/Bcr-AblE255K cells,[9]; 500 nM,43.0%
same,expressions of c-Myc and Bcl-xL,[10],lowered
same,levels of Bcr-Abl,[10],without affecting
same,levels of p-AKT,[10],inhibited
same,levels of p-CrkL,[10],inhibited
same,levels of p-STAT5,[10],attenuated
same,levels of tyrosine phosphorylated Bcr-Abl,[10],inhibited
same,p27 levels,[10],induction
same,"levels of Bcr-Abl, p-CrkL, and p-STAT5",[11],little effect
same,apoptosis of BaF3/Bcr-Abl cells,[12],dose-dependent manner
"Cc1[nH]c2ccccc2c1CCNCc1ccc(/C=C/C(=O)NO)cc1 [Compound (V), N-hydroxy-3-[4-[[[2-(2-methyl-1H-indol-3-yl)-ethyl]-amino]methyl]phenyl]-2E-2-propenamide]",loss of survival of NBMCs,[1]; 20 nM,13.1%
same,loss of survival of NBMCs,[1]; 50 nM,15.9%
same,Bcr-Abl levels,"[2]; 50 nM, 24 hours",lowered
same,apoptosis of K562 cells,[3],dose-dependent manner
same,apoptosis of LAMA-84 cells,[4],dose-dependent manner
same,apoptosis of BaF3/Bcr-Abl T315I cells,"[5]; 50 nM, 48 hours",approximately 30%
same,sensitivity of BaF3/Bcr-AblT315I cells to induced apoptosis,[5]; agent alone,as sensitive as BaF3/Bcr-Abl cells
same,apoptosis of BaF3/Bcr-Abl T315I cells,[5]; levels lower than 50 nM,less effective
same,sensitivity of sample 7,[6],sensitive
same,apoptosis of cells,[6]; 50 nM alone,42.0%
same,loss of cell viability,"[6]; samples 1 to 7, agent alone",dose dependent
same,cell viability,"[6]; samples 8, 9, and 10 with Bcr-AblT315I mutation, alone, 48 hours, dose-dependent",markedly inhibited
same,Bcr-Abl levels,"[7]; 50 nM, 24 hours",lowered
same,Bcr-Abl levels,"[8]; 50 nM, 24 hours",lowered
